melting point [°C] | Compound
92 to 94 | Cc1ccc(S(=O)(=O)Oc2ccc(F)cc2Cl)cc1
139 to 141 | O=C1c2ccccc2C(=O)C1c1cccc(O)c1
120 to 122 | CC(C)c1cc(O)n(C)n1
292 to 294 | CS(=O)(=O)c1cc(Cl)c2[nH]cc(CC(N)C(=O)O)c2c1 (configuration not stated)
91 to 92.5 | CCc1c[nH]c2c3c(ccc12)OCC3
154 to 156 | CCN(CC)CCn1c2ccccc2c(=NNC(N)=S)c2ccccc21
92 | Oc1c(CN2CCCC2)cc(Nc2ccnc3cc(Cl)ccc23)cc1CN1CCCC1
57 to 59 | Brc1sc2ccccc2c1Br
> 250 | CCOC(=O)c1nc2c(=O)[nH]c3cc(C(F)(F)F)ccc3n2c1C
74 to 76 | C=CCOc1ccc(C=NO)c(O)c1
160 | CC(C)C[C@H](NC(=O)NCc1ccccc1)C(=O)N[C@@H](C(C)C)[C@@H](O)c1c(-c2ccccc2)c1=O
93 to 94 | ICCC12CC3CC(CC(C3)C1)C2
220 to 222 | O=C(NC(=S)Nc1ccc2nsnc2c1Cl)c1ccccc1
121 to 122 | CC(C)(C)c1cc(C(C)(C)C)n(Cc2ccc(CO)cc2)n1
56 to 58 | COc1ccc(S(=O)CC(C)=O)cc1 (single isomer, unassigned; (-))
157 to 160 | Cc1cn(NCCCc2ccncc2F)c2ccc(O)cc12
66 to 67 | FC(F)(F)c1ccc(-c2nccc(Oc3cccc(C(F)(F)F)c3)n2)cc1
142 to 143 | CCCCC(O)(COc1ccc(C(=O)O)c(O)c1)c1ccc2c(c1)C(C)(C)CCC2(C)C (configuration not stated)
> 300 | O=[N+]([O-])c1cc2nc(O)c(O)nc2c2ncccc12
142 to 143 | Cc1ccccc1NC(=O)Nc1ccc(CN)cc1
128 to 129 | CCCCC1(CCCC)CCc2c(OCc3ccc4ccccc4n3)ccc(F)c2C1O (configuration not stated)
144 to 146 | Cc1cc(-n2c(C)nc3ccccc32)ccc1[N+](=O)[O-]
108 | Cn1c(Cl)cccc1=O
172 to 174 | COc1ccc2ccc(C(N)=O)c(OC(C)C)c2c1

melting point [°C] | Compound
214 to 216 | CC(C)(C)OC(=O)Nc1ccc(-c2ccc(-c3ccccc3)cc2)cc1NC(=O)CC(=O)c1cccc(C#N)c1
107 to 110 | CC1(n2ncc(-c3ccc(S(C)(=O)=O)cc3)c(-c3ccc(F)cc3)c2=O)CCCC1
73 to 75 | CCOC(=O)C(=O)C1COc2ccccc2C1=O (configuration not stated)
78 | Cc1oc(Cl)nc1-c1ccc(Cl)cc1Cl
98 to 100 | Nc1sc2c(c1C(=O)c1ccc(Cl)cc1)CCN(CCCc1ccccc1)C2
157 to 160 | O=C1C(c2cc3c(cc2O)OCCO3)c2ccccc2N1C(c1ccccc1)c1ccccc1 (configuration not stated)
102 | CNc1cc(SC2CCN(C)CC2)c(Cl)cc1[N+](=O)[O-]
78 | C[Si](C)(C)c1ccc(-c2ccc(Br)cc2F)c(F)c1F
162 to 164 | O=C(O)C12CC3CC(F)(CC(F)(C3)C1)C2
105 to 109 | CCOC(=O)C=Cc1ccc(NC(=O)OC(C)(C)C)cc1
50 | OC(CN1CCNCC1)C(O)(c1ccccc1)C1CCCC1 (configuration not stated)
115 to 116 | Cc1c2c(c(Cc3ccc(C(C)C)cc3)c(C)c1NCc1ccccc1)OCC2
161 to 162 | CCCCC[C@@H](CNC(=O)Nc1cccc2c1OC(C)(C)C2)c1cccc2c1OCO2
252 to 254 | COCCNS(=O)(=O)c1ccc(Nc2nccc(-c3sc(-c4cccnc4)nc3C)n2)cc1
68 to 69 | COC(=O)CC1(c2c(C)c(OC)c(C)c(C)c2OC)C=CC2=NCOC2=C1 (configuration not stated)
116 | CC(C)Nc1cccnc1N1CCN(C(=O)c2ccc(C(=O)NCCOCCO)cc2)CC1
252 to 254 | O=C1CC2Cc3cc(N4CCCCC4)ccc3C2=NN1 (configuration not stated)
177 to 179 | CCOC(=O)C1=C(c2ccc(-n3c(C)nc4cnccc43)cc2)NC(C)=C(C(=O)OCCC#N)C1c1ccccc1Cl (configuration not stated)
210 to 213 | CSc1cc(C(=O)O)cc([N+](=O)[O-])c1C(=O)c1ccccc1
75 to 76 | CCc1ncnc(N[C@H]2CC[C@@H](C(C)(C)O)CC2)c1Cl
232 | COc1cc(N)ccc1CN1C(=O)C(C)(c2ccccc2Cl)c2cc(Cl)ccc21 (configuration not stated)
186 | CC(O)c1cccc(NC(=O)NCC(=O)N(c2ccccc2)C(C)C(=O)N2CCCC(C)(C)C2)c1 (mixture of isomers)
93 | Cc1c(F)c(Oc2ccc(F)c(F)c2)nc(Oc2cc(C(F)(F)F)nn2C)c1F
146 to 148 | O=S(c1ccc2c(c1)C(=C1CCN(CC3CC3)CC1)c1ccccc1C=C2)C(F)(F)F (configuration not stated)

melting point [°C] | Compound
291 to 292 | O=c1ccc2c(-n3ccnc3)nccc2[nH]1
151 to 152 | CCC(=O)Nc1c([N+](=O)[O-])c(C(C)(C)C)nn1-c1c(Cl)cc(C(F)(F)F)cc1Cl
192 to 193 | ON=C1CCOc2cc(Cl)c(Cl)cc21
133 to 136 | CCOC(=O)N1CCC(O)(c2cc(F)c(Br)cc2F)CC1
160 to 161 | CCCCOc1c(CNC(=O)OC(C)(C)C)n(CC2CC2)c(=O)c2ccc(-c3cnco3)cc12
248 to 250 | O=C(NCc1ccc(Cl)cc1)c1cnc2cc(I)ccc2c1O
104 to 111 | CC1(C)CC(N2C(=O)C=CC2=O)CC(C)(C)N1
238 to 240 | CN(C)C=Cc1[nH]c(=O)ccc1C(=O)c1ccco1
106 | OC12CCCCOC1C(OCc1ccccc1)C(OCc1ccccc1)C(OCc1ccccc1)C2OCc1ccccc1 (configuration not stated)
136 to 138 | CCNC(=O)NCCC1CCc2ccc3nc(C)oc3c21 (configuration not stated)
211 to 212 | CC1(C)C(=O)N(c2ccc([N+](=O)[O-])c(C(F)(F)F)c2)C(=O)N1CCCCN1C(=O)N(c2ccc([N+](=O)[O-])c(C(F)(F)F)c2)C(=O)C1(C)C
123 to 125 | CCC(CC)N(Cc1ccc(C#N)cc1)S(=O)(=O)c1ccc(Cl)cc1
106 | CCCCCCN1CCC(n2nc(-c3c(-c4ccccc4)nn4ccccc34)ccc2=O)CC1
254 to 255 | Nc1scc2c1C(=O)c1c-2ccc(Cl)c1Cl
172 | Cn1cc(-c2ccccc2)c(=O)c(-c2cccc(Br)c2)c1
112 to 113 | O=Cc1ccc(C=Cc2ccc3ccccc3n2)cc1
97 to 99 | OC1(c2ccccc2)CSC2=NCN(Cc3ccccc3)CN21 (configuration not stated)
184 to 185 | CCOC(=O)c1cc2ccc(C)c(NS(=O)(=O)c3cccs3)c2[nH]1
129 to 131 | CC(C)(C)c1cc(CN(c2cccnc2)S(=O)(=O)c2cccc(Br)c2)cc(C(C)(C)C)c1O
92 | CCOC(=O)C(C)Oc1ccc(N(C)c2ncnc3cc(Cl)ccc23)cc1 (configuration not stated)
147 to 149 | CCCCCCCCCCCc1[nH]c2cc(C(=O)OC)ccc2c1C=O
169 to 171 | Clc1ccc(-c2cc(C3CCN(CCc4ccccc4)CC3)n[nH]2)cc1
192 to 194 | COc1nc2cc(Cl)c(Cl)c(-n3c(CN(C)C)nnc3-c3cccnc3)c2nc1OC
150 to 152 | CN1CC(CCn2ccnc2)Oc2ncccc2C1=O (configuration not stated)

melting point [°C] | Compound
159 to 160 | CS(=O)(=O)c1ccc(Oc2cc(OCc3ccccc3)c3[nH]c(-c4nnc(CO)s4)cc3c2)cc1
117 to 119 | CCC(O)(CC)[C@H](Nc1nnc(-c2c(OS(=O)(=O)C(F)(F)F)ccc3ccccc23)c2ccccc12)c1ccccc1
290 | COC(=O)c1cc(C(=O)c2ncc3ccc(C(=O)O)cn23)ccc1[N+](=O)[O-]
100 | CC(C)(Oc1ccc(Cl)cc1)C(=O)C(Oc1cccc(Cl)n1)n1cncn1 (configuration not stated)
45 to 48 | CCN(CC)C(=O)c1ccoc1-c1ccc(C(F)(F)F)cc1
294 to 296 | Nc1nc(Nc2ccc(S(N)(=O)=O)cc2)sc1C(=O)c1c(Cl)cc(C(F)(F)F)cc1Cl
199 to 201 | CN(C(=O)CCS(C)(=O)=O)c1nnc(-c2cccnc2)s1
184 to 185 | COc1cc2c(cc1OC)C(Oc1ccccc1)CN(NC(=O)c1cc(Cl)cc(Cl)c1)CC2 (configuration not stated)
103 to 104 | CCC(O)(c1ccc(F)cc1)c1ccc(OCc2cccc(C)n2)cc1 (configuration not stated)
180 to 182 | COc1cc2c(cc1OCCCBr)oc1cc(-c3ccccc3Cl)c3c(c12)C(=O)N(CCCBr)C3=O
92 | CC(Oc1cccc(Oc2c(Cl)cc(C(F)(F)F)cc2Cl)c1)(C(=O)Cl)[N+](=O)[O-] (configuration not stated)
166 to 169 | CN1C(=O)C(Cc2ccccc2)Oc2ccc([N+](=O)[O-])cc21 (configuration not stated)
229 to 231 | COC(=O)c1ccc(CSc2nc3ccccc3[nH]2)cc1
105 to 107 | CCOC(=O)Cc1nnc2c(CC(C)C)nc(-c3ccccc3)cn12
139 to 141 | O=C1C=C(C(=O)c2ccccc2[N+](=O)[O-])CC(c2ccccc2)N1 (configuration not stated)
101 to 103 | O=[N+]([O-])c1cccnc1NCC(O)c1ccccc1 (configuration not stated)
186 | O=C(NO)[C@H](CNS(=O)(=O)c1ccc(OCc2ccccc2)cc1)N1CCCC1
94 to 95 | CCc1cc(-c2ccc(OC)cc2)ccc1[N+](=O)[O-]
110 to 120 | COC(=O)c1cc(N)c(Cl)c(N)c1
162 to 165 | O=[N+]([O-])c1ccc(Cn2c(CO)nc3ccccc32)cc1
218 to 220 | Cc1ccc(C(C)(C)C)c(O)c1-c1nc2cc(S(=O)(=O)C(F)(F)F)ccc2[nH]1
117 to 119 | CCOC(=O)C1=C(COCC(C)=O)NC(C)=C(C(=O)OC)C1c1cccc(Cl)c1Cl (configuration not stated)

Compound | melting point [°C]
CN(C)C1(c2ccccc2)CCC2(CC1)NCCc1c2[nH]c2ccc(-c3ccncc3)cc12 (configuration not stated) | 190 to 197
CSCC(C)(C)NC(=O)c1c(NC(=O)c2cc(C(F)(F)F)nn2-c2ncccc2Cl)c(Cl)cc2cn[nH]c12 | 100 to 105
CC(=O)OC(c1cc2n(n1)CCOC2=O)C1(Br)C(=O)N2C(C(=O)OCc3ccc([N+](=O)[O-])cc3)=CSC21 (configuration not stated) | 107 to 110

From a melting point compilation (Tetko et al.; mined from patent text by program, amines drawn as free bases though some values may be those of a salt)
